ChEMBL document CHEMBL4396916, “Novel potent substituted 4-amino-2-thiopyrimidines as dual VEGFR-2 and BRAF kinase inhibitors” (Eur J Med Chem, 2019)

What was measured:
[1] = biological target: Vascular endothelial growth factor receptor 2 (Homo sapiens, UniProt P35968); assay: Inhibition of human N-terminal GST tagged VEGFR-2 expressed in baculovirus infected Sf9 cells using poly (Glu,Tyr) 4:1 as substrate in presence of ATP by Kinase-Glo luminescence assay
CCRF-CEM = assay: Growth inhibition of human CCRF-CEM cells at 10 uM incubated for 48 hrs by sulforhodamine B assay relative to control; format: functional; conditions: read-out: GI
K562 = assay: Growth inhibition of human K562 cells at 10 uM incubated for 48 hrs by sulforhodamine B assay relative to control; format: functional; conditions: K562, 48 h, read-out: GI
MOLT-4 = assay: Growth inhibition of human MOLT4 cells at 10 uM incubated for 48 hrs by sulforhodamine B assay relative to control; format: functional; conditions: MOLT-4, 48 h, read-out: GI
RPMI-8226 = assay: Growth inhibition of human RPMI8226 cells at 10 uM incubated for 48 hrs by sulforhodamine B assay relative to control; format: functional; conditions: RPMI-8226, 48 h, read-out: GI
SR = assay: Growth inhibition of human SR cells at 10 uM incubated for 48 hrs by sulforhodamine B assay relative to control; format: functional; conditions: read-out: GI
EKVX = assay: Growth inhibition of human EKVX cells at 10 uM incubated for 48 hrs by sulforhodamine B assay relative to control; format: functional; conditions: read-out: GI
HOP-92 = assay: Growth inhibition of human HOP92 cells at 10 uM incubated for 48 hrs by sulforhodamine B assay relative to control; format: functional; conditions: HOP-92, 48 h, read-out: GI
NCI-H226 = assay: Growth inhibition of human NCI-H226 cells at 10 uM incubated for 48 hrs by sulforhodamine B assay relative to control; format: functional; conditions: NCI-H226, 48 h, read-out: GI
NCI-H23 = assay: Growth inhibition of human NCI-H23 cells at 10 uM incubated for 48 hrs by sulforhodamine B assay relative to control; format: functional; conditions: NCI-H23, 48 h, read-out: GI
NCI-H460 = assay: Growth inhibition of human NCI-H460 cells at 10 uM incubated for 48 hrs by sulforhodamine B assay relative to control; format: functional; conditions: NCI-H460, 48 h, read-out: GI
NCI-H522 = assay: Growth inhibition of human NCI-H522 cells at 10 uM incubated for 48 hrs by sulforhodamine B assay relative to control; format: functional; conditions: NCI-H522, 48 h, read-out: GI
HCT-116 = assay: Growth inhibition of human HCT116 cells at 10 uM incubated for 48 hrs by sulforhodamine B assay relative to control; format: functional; conditions: HCT-116, 48 h, read-out: GI
HCT-15 = assay: Growth inhibition of human HCT15 cells at 10 uM incubated for 48 hrs by sulforhodamine B assay relative to control; format: functional; conditions: HCT-15, 48 h, read-out: GI
HT-29 = assay: Growth inhibition of human HT-29 cells at 10 uM incubated for 48 hrs by sulforhodamine B assay relative to control; format: functional; conditions: HT-29, 48 h, read-out: GI
KM12 = assay: Growth inhibition of human KM12 cells at 10 uM incubated for 48 hrs by sulforhodamine B assay relative to control; format: functional; conditions: KM12, 48 h, read-out: GI
SF-539 = assay: Growth inhibition of human SF539 cells at 10 uM incubated for 48 hrs by sulforhodamine B assay relative to control; format: functional; conditions: SF-539, 48 h, read-out: GI
SNB-19 = assay: Growth inhibition of human SNB19 cells at 10 uM incubated for 48 hrs by sulforhodamine B assay relative to control; format: functional; conditions: SNB-19, 48 h, read-out: GI
SNB-75 = assay: Growth inhibition of human SNB75 cells at 10 uM incubated for 48 hrs by sulforhodamine B assay relative to control; format: functional; conditions: SNB-75, 48 h, read-out: GI
LOX IMVI = assay: Growth inhibition of human LOXIMVI cells at 10 uM incubated for 48 hrs by sulforhodamine B assay relative to control; format: functional; conditions: read-out: GI
M14 = assay: Growth inhibition of human M14 cells at 10 uM incubated for 48 hrs by sulforhodamine B assay relative to control; format: functional; conditions: M14, 48 h, read-out: GI
MDA-MB-435 = assay: Growth inhibition of human MDA-MB-435 cells at 10 uM incubated for 48 hrs by sulforhodamine B assay relative to control; format: functional; conditions: MDA-MB-435, 48 h, read-out: GI
SK-MEL-5 = assay: Growth inhibition of human SK-MEL-5 cells at 10 uM incubated for 48 hrs by sulforhodamine B assay relative to control; format: functional; conditions: SK-MEL-5, 48 h, read-out: GI
UACC-62 = assay: Growth inhibition of human UACC62 cells at 10 uM incubated for 48 hrs by sulforhodamine B assay relative to control; format: functional; conditions: UACC-62, 48 h, read-out: GI
IGROV-1 = assay: Growth inhibition of human IGROV1 cells at 10 uM incubated for 48 hrs by sulforhodamine B assay relative to control; format: functional; conditions: IGROV-1, 48 h, read-out: GI
OVCAR-3 = assay: Growth inhibition of human OVCAR3 cells at 10 uM incubated for 48 hrs by sulforhodamine B assay relative to control; format: functional; conditions: OVCAR-3, 48 h, read-out: GI
OVCAR-4 = assay: Growth inhibition of human OVCAR4 cells at 10 uM incubated for 48 hrs by sulforhodamine B assay relative to control; format: functional; conditions: OVCAR-4, 48 h, read-out: GI
OVCAR-8 = assay: Growth inhibition of human OVCAR8 cells at 10 uM incubated for 48 hrs by sulforhodamine B assay relative to control; format: functional; conditions: OVCAR-8, 48 h, read-out: GI
NCI/ADR-RES = assay: Growth inhibition of human NCI/ADR-RES cells at 10 uM incubated for 48 hrs by sulforhodamine B assay relative to control; format: functional; conditions: read-out: GI
A498 = assay: Growth inhibition of human A498 cells at 10 uM incubated for 48 hrs by sulforhodamine B assay relative to control; format: functional; conditions: A498, 48 h, read-out: GI
CAKI-1 = assay: Growth inhibition of human Caki1 cells at 10 uM incubated for 48 hrs by sulforhodamine B assay relative to control; format: functional; conditions: CAKI-1, 48 h, read-out: GI
RXF 393 = assay: Growth inhibition of human RXF393 cells at 10 uM incubated for 48 hrs by sulforhodamine B assay relative to control; format: functional; conditions: RXF 393, 48 h, read-out: GI
SN12C = assay: Growth inhibition of human SN12C cells at 10 uM incubated for 48 hrs by sulforhodamine B assay relative to control; format: functional; conditions: read-out: GI
UO-31 = assay: Growth inhibition of human UO31 cells at 10 uM incubated for 48 hrs by sulforhodamine B assay relative to control; format: functional; conditions: UO-31, 48 h, read-out: GI
PC-3 = assay: Growth inhibition of human PC3 cells at 10 uM incubated for 48 hrs by sulforhodamine B assay relative to control; format: functional; conditions: PC-3, 48 h, read-out: GI
MCF7 [2] = assay: Growth inhibition of human MCF7 cells at 10 uM incubated for 48 hrs by sulforhodamine B assay relative to control; format: functional; conditions: MCF7, 48 h, read-out: GI
MDA-MB-231 = assay: Growth inhibition of human MDA-MB-231 cells at 10 uM incubated for 48 hrs by sulforhodamine B assay relative to control; format: functional; conditions: MDA-MB-231, 48 h, read-out: GI
Hs-578T = assay: Growth inhibition of human Hs578T cells at 10 uM incubated for 48 hrs by sulforhodamine B assay relative to control; format: functional; conditions: read-out: GI
BT-549 = assay: Growth inhibition of human BT549 cells at 10 uM incubated for 48 hrs by sulforhodamine B assay relative to control; format: functional; conditions: BT-549, 48 h, read-out: GI
T47D [3] = assay: Growth inhibition of human T47D cells at 10 uM incubated for 48 hrs by sulforhodamine B assay relative to control; format: functional; conditions: read-out: GI
MDA-MB-468 = assay: Growth inhibition of human MDA-MB-468 cells at 10 uM incubated for 48 hrs by sulforhodamine B assay relative to control; format: functional; conditions: MDA-MB-468, 48 h, read-out: GI
MCF7 [4] = assay: Cytotoxicity against human MCF7 cells expressing VEGFR2 and wild type BRAF measured after 48 hrs by sulforhodamine B assay; format: functional, cell-based; conditions: MCF7, 48 h
T47D [5] = assay: Cytotoxicity against human T47D cells expressing wild type BRAF measured after 48 hrs by sulforhodamine B assay; format: functional, cell-based
MCF7 [6] = assay: Inhibition of VEGFR2 level in human MCF7 cells at 10 uM measured after 48 hrs by ELISA relative to control; format: functional; conditions: MCF7, 48 h

Chain of Vascular endothelial growth factor receptor 2 (P35968 whole entry): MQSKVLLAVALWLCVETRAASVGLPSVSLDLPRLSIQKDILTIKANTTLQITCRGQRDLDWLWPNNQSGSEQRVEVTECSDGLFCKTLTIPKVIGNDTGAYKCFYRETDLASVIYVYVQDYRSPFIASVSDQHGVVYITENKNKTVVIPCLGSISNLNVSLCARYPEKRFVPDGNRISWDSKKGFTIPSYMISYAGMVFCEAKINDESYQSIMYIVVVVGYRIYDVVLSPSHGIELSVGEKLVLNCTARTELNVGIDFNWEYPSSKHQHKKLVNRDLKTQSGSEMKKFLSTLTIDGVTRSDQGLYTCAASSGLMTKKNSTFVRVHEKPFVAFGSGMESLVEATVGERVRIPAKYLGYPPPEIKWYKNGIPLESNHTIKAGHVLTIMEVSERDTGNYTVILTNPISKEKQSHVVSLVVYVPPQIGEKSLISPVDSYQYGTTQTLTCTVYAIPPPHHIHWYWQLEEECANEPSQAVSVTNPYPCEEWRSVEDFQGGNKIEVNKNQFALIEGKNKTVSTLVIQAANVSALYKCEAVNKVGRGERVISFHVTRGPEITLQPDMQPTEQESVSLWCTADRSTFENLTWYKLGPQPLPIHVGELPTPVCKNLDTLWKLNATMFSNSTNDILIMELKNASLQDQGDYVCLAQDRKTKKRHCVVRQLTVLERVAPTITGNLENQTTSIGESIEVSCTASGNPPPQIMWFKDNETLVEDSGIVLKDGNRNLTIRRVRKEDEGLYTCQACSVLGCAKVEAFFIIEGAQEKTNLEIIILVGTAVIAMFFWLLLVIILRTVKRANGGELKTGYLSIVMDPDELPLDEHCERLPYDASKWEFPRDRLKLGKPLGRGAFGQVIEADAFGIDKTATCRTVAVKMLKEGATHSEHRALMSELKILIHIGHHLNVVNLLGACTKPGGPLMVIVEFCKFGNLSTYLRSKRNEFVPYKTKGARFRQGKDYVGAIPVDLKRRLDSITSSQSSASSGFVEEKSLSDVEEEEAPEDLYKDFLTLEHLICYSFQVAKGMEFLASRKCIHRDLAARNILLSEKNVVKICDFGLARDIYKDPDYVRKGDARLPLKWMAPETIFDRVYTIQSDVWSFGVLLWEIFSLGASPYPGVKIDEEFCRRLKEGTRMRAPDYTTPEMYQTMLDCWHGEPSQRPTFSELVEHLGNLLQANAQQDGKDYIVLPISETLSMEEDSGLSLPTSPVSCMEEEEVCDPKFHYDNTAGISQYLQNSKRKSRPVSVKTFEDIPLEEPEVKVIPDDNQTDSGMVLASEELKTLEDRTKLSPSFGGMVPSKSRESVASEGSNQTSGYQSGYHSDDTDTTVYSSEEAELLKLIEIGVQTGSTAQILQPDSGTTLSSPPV

`COc1ccc(C(=O)CSc2nccc(Nc3cccc(C(C)=O)c3)n2)cc1` was tested. Which IC50 [1] did it give?
Its IC50 is 0.42 µM.

And the inhibition of growth at 10 µM (CCRF-CEM)?
Its inhibition of growth at 10 µM is 46%.

And the inhibition of growth at 10 µM (K562)?
Its inhibition of growth at 10 µM is 37%.

What about the inhibition of growth at 10 µM (MOLT-4) of the same compound?
Its inhibition of growth at 10 µM is 53%.

And the inhibition of growth at 10 µM (RPMI-8226)?
Its inhibition of growth at 10 µM is 42%.

And the inhibition of growth at 10 µM (SR)?
The inhibition of growth at 10 µM was 35%.

What about the inhibition of growth at 10 µM (EKVX) of the same compound?
The inhibition of growth at 10 µM was 29%.

And the inhibition of growth at 10 µM (HOP-92)?
Its inhibition of growth at 10 µM is 24%.

And the inhibition of growth at 10 µM (NCI-H226)?
The inhibition of growth at 10 µM was 35%.

What about the inhibition of growth at 10 µM (NCI-H23) of the same compound?
The inhibition of growth at 10 µM was 19%.

And the inhibition of growth at 10 µM (NCI-H460)?
The inhibition of growth at 10 µM was 14%.

What about the inhibition of growth at 10 µM (NCI-H522) of the same compound?
Its inhibition of growth at 10 µM is 37%.

What about the inhibition of growth at 10 µM (HCT-116) of the same compound?
The inhibition of growth at 10 µM was 23%.

What about the inhibition of growth at 10 µM (HCT-15) of the same compound?
The inhibition of growth at 10 µM was 22%.

What about the inhibition of growth at 10 µM (HT-29) of the same compound?
The inhibition of growth at 10 µM was 11%.

What about the inhibition of growth at 10 µM (KM12) of the same compound?
Its inhibition of growth at 10 µM is 15%.

And the inhibition of growth at 10 µM (SF-539)?
Its inhibition of growth at 10 µM is 12%.

And the inhibition of growth at 10 µM (SNB-19)?
Its inhibition of growth at 10 µM is 13%.

What about the inhibition of growth at 10 µM (SNB-75) of the same compound?
The inhibition of growth at 10 µM was 31%.

What about the inhibition of growth at 10 µM (LOX IMVI) of the same compound?
Its inhibition of growth at 10 µM is 23%.

What about the inhibition of growth at 10 µM (M14) of the same compound?
The inhibition of growth at 10 µM was 15%.

What about the inhibition of growth at 10 µM (MDA-MB-435) of the same compound?
The inhibition of growth at 10 µM was 15%.

What about the inhibition of growth at 10 µM (SK-MEL-5) of the same compound?
Its inhibition of growth at 10 µM is 22%.

What about the inhibition of growth at 10 µM (UACC-62) of the same compound?
Its inhibition of growth at 10 µM is 35%.

What about the inhibition of growth at 10 µM (IGROV-1) of the same compound?
The inhibition of growth at 10 µM was 18%.

What about the inhibition of growth at 10 µM (OVCAR-3) of the same compound?
The inhibition of growth at 10 µM was 12%.

And the inhibition of growth at 10 µM (OVCAR-4)?
The inhibition of growth at 10 µM was 19%.

And the inhibition of growth at 10 µM (OVCAR-8)?
Its inhibition of growth at 10 µM is 32%.

And the inhibition of growth at 10 µM (NCI/ADR-RES)?
Its inhibition of growth at 10 µM is 40%.

What about the inhibition of growth at 10 µM (A498) of the same compound?
Its inhibition of growth at 10 µM is 22%.

What about the inhibition of growth at 10 µM (CAKI-1) of the same compound?
Its inhibition of growth at 10 µM is 35%.

And the inhibition of growth at 10 µM (RXF 393)?
Its inhibition of growth at 10 µM is 14%.

And the inhibition of growth at 10 µM (SN12C)?
Its inhibition of growth at 10 µM is 22%.

What about the inhibition of growth at 10 µM (UO-31) of the same compound?
Its inhibition of growth at 10 µM is 55%.

What about the inhibition of growth at 10 µM (PC-3) of the same compound?
The inhibition of growth at 10 µM was 37%.

And the inhibition of growth at 10 µM (MCF7 [2])?
The inhibition of growth at 10 µM was 11%.

What about the inhibition of growth at 10 µM (MDA-MB-231) of the same compound?
Its inhibition of growth at 10 µM is 27%.

And the inhibition of growth at 10 µM (Hs-578T)?
Its inhibition of growth at 10 µM is 19%.

What about the inhibition of growth at 10 µM (BT-549) of the same compound?
The inhibition of growth at 10 µM was 27%.

What about the inhibition of growth at 10 µM (T47D [3]) of the same compound?
The inhibition of growth at 10 µM was 45%.

What about the inhibition of growth at 10 µM (MDA-MB-468) of the same compound?
Its inhibition of growth at 10 µM is 34%.

What about the IC50 (MCF7 [4]) of the same compound?
The IC50 was 67.1 µM.

What about the IC50 (T47D [5]) of the same compound?
Its IC50 is 13.2 µM.

What about the inhibition at 10 µM (MCF7 [6]) of the same compound?
Its inhibition at 10 µM is 16%.
